Source: PubChem BioAssay (NCI)
Where “and” joins values, the source holds several entries; their conditions need not be identical. Equal entries are not always repeated.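 1) Cells in 96-well plates. 2) Compound, 48 h, 5 concentrations. 3) Linear interpolation between surrounding doses. 4) Unreached endpoint = highest concentration. GI50: concentration for 50% inhibition of growth. TGI: concentration producing complete growth inhibition.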

Experiments:
Assay in all cases: growth of human tumour cells (NCI), 48 h
A549 NSCLC = test system: A549 NSCLC
COLO 205 colon = test system: COLO 205 colon
HOP-62 NSCLC = test system: HOP-62 NSCLC
K-562 leukemia = test system: K-562 leukemia
MALME-3M melanoma = test system: MALME-3M melanoma
NCI-H226 lung = test system: NCI-H226 lung
RPMI-8226 leukemia = test system: RPMI-8226 leukemia
SK-MEL-5 melanoma = test system: SK-MEL-5 melanoma
U251 CNS = test system: U251 CNS
UACC-257 melanoma = test system: UACC-257 melanoma

SMILES: COc1cc(C(=O)NC2c3ccccc3-c3ccccc32)c(N)cc1OCc1ccccc1
- GI50 (A549 NSCLC): 17.9 µM
- TGI (A549 NSCLC): > 100 µM
- GI50 (COLO 205 colon): 63.9 µM
- TGI (COLO 205 colon): > 100 µM
- GI50 (HOP-62 NSCLC): 10.6 µM
- TGI (HOP-62 NSCLC): 38.4 µM
- GI50 (K-562 leukemia): 15.9 µM
- TGI (K-562 leukemia): > 100 µM
- GI50 (MALME-3M melanoma): 26.6 µM
- TGI (MALME-3M melanoma): > 76.6 µM
- GI50 (NCI-H226 lung): 11.4 µM
- TGI (NCI-H226 lung): 44.3 µM
- GI50 (RPMI-8226 leukemia): 97.5 µM
- TGI (RPMI-8226 leukemia): > 100 µM
- GI50 (SK-MEL-5 melanoma): 27.5 µM
- TGI (SK-MEL-5 melanoma): > 100 µM
- GI50 (U251 CNS): 14.4 µM
- TGI (U251 CNS): 34.7 µM
- GI50 (UACC-257 melanoma): 58.7 µM
- TGI (UACC-257 melanoma): > 100 µM

SMILES: O=c1cc(-c2cccc(F)c2)[nH]c2cc3c(cc12)OCO3
- GI50 (A549 NSCLC): 0.498 µM
- TGI (A549 NSCLC): 21.9 µM and 40.9 µM
- TGI (COLO 205 colon): 0.364 µM
- TGI (HOP-62 NSCLC): 21.3 µM
- GI50 (K-562 leukemia): 0.338 µM
- TGI (K-562 leukemia): 75 µM and > 16.4 µM
- TGI (MALME-3M melanoma): > 72 µM
- GI50 (NCI-H226 lung): 0.951 µM and 0.0963 µM
- TGI (NCI-H226 lung): 9.77 µM and 1.49 µM
- GI50 (SK-MEL-5 melanoma): 0.0639 µM
- GI50 (U251 CNS): 0.268 µM
- TGI (U251 CNS): 9.58 µM and 49.1 µM
- TGI (UACC-257 melanoma): > 100 µM

SMILES: Cc1cc2c(cc1C)[n+](=O)c(C(=O)C/C(=N/NC(=O)c1ccccc1O)C(=O)Nc1ccccc1C(C)C)c(C)n2[O-]
- TGI (A549 NSCLC): > 100 µM
- TGI (COLO 205 colon): > 100 µM
- TGI (HOP-62 NSCLC): > 100 µM
- TGI (K-562 leukemia): > 100 µM
- TGI (MALME-3M melanoma): > 100 µM
- TGI (NCI-H226 lung): > 100 µM
- TGI (SK-MEL-5 melanoma): > 100 µM
- TGI (U251 CNS): > 100 µM
- TGI (UACC-257 melanoma): > 100 µM

SMILES: COc1ccc(-c2cc(-c3cc(Cl)ccc3Cl)nc3[nH]c(-c4cc(F)c(Cl)cc4Cl)cc(=O)c23)cc1
- GI50 (A549 NSCLC): 14.2 µM
- TGI (A549 NSCLC): 74.7 µM
- GI50 (COLO 205 colon): 43.6 µM
- TGI (COLO 205 colon): > 100 µM
- GI50 (HOP-62 NSCLC): 5.52 µM
- TGI (HOP-62 NSCLC): 32.2 µM
- GI50 (K-562 leukemia): 29.3 µM
- TGI (K-562 leukemia): > 100 µM
- GI50 (NCI-H226 lung): 20.5 µM
- TGI (NCI-H226 lung): 63.6 µM
- GI50 (RPMI-8226 leukemia): 25 µM
- TGI (RPMI-8226 leukemia): 69.1 µM
- GI50 (SK-MEL-5 melanoma): 7.63 µM
- TGI (SK-MEL-5 melanoma): 33.4 µM
- GI50 (U251 CNS): 21.8 µM
- TGI (U251 CNS): 61.6 µM
- GI50 (UACC-257 melanoma): 21 µM
- TGI (UACC-257 melanoma): > 100 µM

SMILES: N#Cc1c(-c2cccs2)c2c(=S)[nH]c(=S)[nH]c2[nH]c1=S
- GI50 (A549 NSCLC): 28.9 µM
- TGI (A549 NSCLC): > 100 µM
- GI50 (COLO 205 colon): 28.8 µM
- TGI (COLO 205 colon): > 100 µM
- GI50 (HOP-62 NSCLC): > 100 µM
- TGI (HOP-62 NSCLC): > 100 µM
- GI50 (K-562 leukemia): 27.1 µM
- TGI (K-562 leukemia): > 100 µM
- GI50 (NCI-H226 lung): 37.2 µM
- TGI (NCI-H226 lung): > 100 µM
- GI50 (RPMI-8226 leukemia): 27.4 µM
- TGI (RPMI-8226 leukemia): 73.6 µM
- GI50 (SK-MEL-5 melanoma): 17.2 µM
- TGI (SK-MEL-5 melanoma): 33.9 µM
- GI50 (U251 CNS): 30.2 µM
- TGI (U251 CNS): > 100 µM
- GI50 (UACC-257 melanoma): 18 µM
- TGI (UACC-257 melanoma): 81.3 µM

SMILES: COc1ccc2cc1Oc1ccc(cc1)C[C@H]1c3cc(c(OC)cc3CCN1C)Oc1c(OC)c(OC)cc3c1[C@H](C2)N(C)CC3
- GI50 (HOP-62 NSCLC): 15.1 µM
- TGI (HOP-62 NSCLC): 15.1 µM and 34.2 µM
- TGI (K-562 leukemia): 11.1 µM and > 100 µM
- GI50 (RPMI-8226 leukemia): 1.92 µM
- TGI (RPMI-8226 leukemia): 20.3 µM and 5.21 µM
- GI50 (SK-MEL-5 melanoma): 3.94 µM
- TGI (SK-MEL-5 melanoma): 11.8 µM and 13.8 µM and > 100 µM
- GI50 (U251 CNS): 3.92 µM
- TGI (U251 CNS): 15.1 µM and 13.5 µM and > 100 µM
- GI50 (UACC-257 melanoma): 4.06 µM
- TGI (UACC-257 melanoma): 11.4 µM and 14.6 µM and > 100 µM

SMILES: CCCCCCCCCCCCCCCC(=O)NCC(COP(=O)([O-])OCC[N+](C)(C)C)OCC (stereo not drawn)
- TGI (A549 NSCLC): 45.7 µM
- TGI (COLO 205 colon): 5.1 µM
- TGI (HOP-62 NSCLC): 20.1 µM
- TGI (MALME-3M melanoma): 30.8 µM
- TGI (NCI-H226 lung): 13.6 µM
- TGI (RPMI-8226 leukemia): 9.76 µM
- TGI (SK-MEL-5 melanoma): 33.9 µM
- TGI (U251 CNS): 14.4 µM
- TGI (UACC-257 melanoma): 30.4 µM
